In patent US10328141B2, “Synthetic vaccines against Streptococcus pneumoniae type 1” (MAX-PLANCK-GESELLSCHAFT ZUR FÖRDERUNG DER WISSENSCHAFTEN …, priority 2013, dated 2019):

Experiments:
[1] = test system: rabbit anti-Streptococcus pneumoniae type 1 typing serum; assay: Glycan microarray binding of rabbit anti-SP1 typing serum to immobilised saccharides; settings: saccharides coated on modified GAPS II or CodeLink NHS slides; FIGS. 6-8
Experimental: (§1) Microarray slides coated with the saccharides of general formula (I) were synthesized by conjugating the saccharides of general formula (I) to said modified microarray slides, and incubated with rabbit anti-Streptococcus pneumoniae type 1 typing serum […] in the presence or absence of native Streptococcus pneumoniae type 1 polysaccharide.
Maleimide-functionalized microarrays were produced by submerging amine-coated slides (GAPS II slides, Corning) in 6-maleimidohexanoic acid N-hydroxysuccinimide ester (2 mM) in dry DMF with diisopropylethylamine (2.5% v/v) for 24 h at room temperature. Slides were washed three times with water and three times with ethanol, centrifuged to dryness, and stored under argon until spotting. Diluted saccharides of general formula (I) were printed onto the modified microarray slides at 0.4 nL per spot by an automatic piezoelectric arraying robot (Scienion, Berlin, Germany). For completion of the immobilization reaction, printed slides were stored for 24 h in a humidified chamber.
Microarray slides were washed three times with water. Unreacted maleimide was quenched by submerging the slides in β-mercaptoethanol (0.1%, v/v) in PBS for 1 h at room temperature. Slides were washed three times with water and with ethanol, centrifuged to dryness, and blocked with BSA (1%, w/v) in PBS for 1 h at room temperature. […]

[2] = test system: human pneumococcal serum 007sp; assay: Glycan microarray binding of human pneumococcal reference serum 007sp to immobilised saccharides; settings: saccharides coated on modified CodeLink NHS slides; pooled sera of 287 humans immunized with Pneumovax; FIG. 5
Experimental: as §1
[…] Slides were washed three times with water and three times with ethanol, centrifuged to dryness, and stored under argon until spotting. Diluted saccharides of general formula (I) were printed onto the modified microarray slides at 0.4 nL per spot by an automatic piezoelectric arraying robot (Scienion, Berlin, Germany). For completion of the immobilization reaction, printed slides were stored for 24 h in a humidified chamber.
Microarray slides were washed three times with water. Unreacted maleimide was quenched by submerging the slides in β-mercaptoethanol (0.1%, v/v) in PBS for 1 h at room temperature. Slides were washed three times with water and with ethanol, centrifuged to dryness, and blocked with BSA (1%, w/v) in PBS for 1 h at room temperature. Blocked slides were washed (2×PBS, 3×water), centrifuged, and incubated with the sera dilutions.
CodeLink NHS slides were incubated for 24 h (1% w/v in PBS) at 4° C. […]

SMILES | binding of rabbit anti-Streptococcus pneumoniae type 1 typing serum to saccharide structure on microarray slides [1] | binding of human pneumococcal serum 007sp to saccharide structure on microarray slides [2]
CC(=O)N[C@H]1[C@@H](O[C@@H]2[C@H](O)[C@@H](O)[C@@H](O[C@H]3[C@@H](O)[C@@H](C(=O)O)O[C@H](O)[C@@H]3O)O[C@@H]2C(=O)O)O[C@H](C)[C@H](N)[C@@H]1O [α-2,4,6-trideoxy-4-amino-D-GalNAc-(1→4)-α-D-GalAp-(1→3)-α-D-GalAp] | bound | bound
O=C(O)[C@H]1O[C@H](O[C@H]2[C@@H](O)[C@@H](C(=O)O)O[C@H](O)[C@@H]2O)[C@H](O)[C@@H](O)[C@H]1O [α-D-GalAp-(1→3)-α-D-GalAp] | bound | bound
